Assay results as given in US5461142A, “Phosphorylated derivatives of cardiodilatin/ANF peptides” (Pharma Bissendorf Peptide GmbH, priority 1987, dated 1995).
“Also recorded” adds a separate entry of the source. No end group written: not given here.

System: rabbit aorta muscle strips
Test: Bioactivity test: relaxation of norepinephrine-precontracted rabbit aorta muscle strips in organ bath
Assay type: cell-based, New Zealand rabbits
Conditions: for relaxation activity: Example 6, tested as in Example 5, corresponding concentrations
Procedure: Muscle strips of rabbit aorta were first contracted by the action of a solution of norepinephrine (10^-7 M). After constant conditions had been adjusted, the peptides were added (position of the arrow).
The muscle relaxation continues only after a further addition of unphosphorylated alpha-nANaP.
Aortae of New Zealand rabbits were prepared. The muscular tension was measured with a muscle strip in an organ bath containing physiological saline. The strips were pre-contracted with a solution of 10^-6 M of norepinephrin, then at fill relaxation. For the assay, a further contraction was induced with 10^-7 M of norepinephrin. After constant contraction conditions had been reached, the peptides were applied.
Alpha-hANaP was phosphorylated according to EXAMPLE 1 in the presence of ATP and the catalytic subunit according to EXAMPLE 1. For control, unphosphorylated alpha-hANaP was incubated under the same conditions, however in the absence of ATP. […] Stepwise addition of unphosphorylated, phosphorylated and in turn unphosphorylated alpha-hANaP allows clearly to recognize that only unphosphorylated alpha-hANaP exerts a significant relaxing effect in comparison to phosphorylated peptide. If the addition is reversed, first phosphorylated, then unphosphorylated and again phosphorylated alpha-hANaP, the corresponding reversed relaxation effect is found.
CDD-32 (Urodilatin) is phosphorylated according to Example 1 and investigated for its biological activity in the same manner as in Example 5.

Urodilatin [reference compound] was tested, and the relaxation activity was “dose-dependant relaxation activity”.
In the case of “phosphorylated CDD-28: alpha-hANaP (positions 99-126 of gamma-hANaP) phosphorylated with c-AMP-dependent proteinkinase; formula I with R = H, X = phosphate (SLRRSSCFGGRMDRIGAQSGLGCNSFRY; ends and bridges not checked; also: phosphorylated (phosphate), site not given here; UniProt P01160 124-151, looked up)”, the “effect onto the smooth vascular musculature (relaxation)” value (FIG. 5, strips contracted with norepinephrine 10^-7 M, peptide final concentration 0.3 to 0.6×10^-9 M) is reported as “only a slight relaxation” and the “muscle relaxation of precontracted rabbit aorta strips” value (FIG. 7 / Example 5, final concentration 0.3×10^-9 M, stepwise addition, listed as phosphorylated alpha-hANaP) is reported as “an effect next to nothing; also recorded: negligible effect”.
“phosphorylated CDD-32: CDD-32 (urodilatin, amino acids 95-126 of gamma-hANaP) phosphorylated according to Example 1 (TAPRSLRRSSCFGGRMDRIGAQSGLGCNSFRY; ends and bridges not checked; also: phosphorylated (phosphate), site not given here; UniProt P01160 120-151, looked up)” was tested, and the relaxation activity was “distinctly reduced relaxation” and the relative relaxation capability (FIG. 8, phosphorylated versus unphosphorylated form at corresponding concentration) was “significantly lower relaxation capability than that of the unphosphorylated form”.
